Where two headings read alike, the source gives them in different places.
Key:
[1] = biological target: AEA-DA lipid probe targets in Neuro2a cells (Mus musculus, UniProt P45377)
[2] = biological target: T1, AEA-DA lipid probe targets in Neuro2a cells (Mus musculus, UniProt Q6PD26)
T1 sequence (Q6PD26 1-555): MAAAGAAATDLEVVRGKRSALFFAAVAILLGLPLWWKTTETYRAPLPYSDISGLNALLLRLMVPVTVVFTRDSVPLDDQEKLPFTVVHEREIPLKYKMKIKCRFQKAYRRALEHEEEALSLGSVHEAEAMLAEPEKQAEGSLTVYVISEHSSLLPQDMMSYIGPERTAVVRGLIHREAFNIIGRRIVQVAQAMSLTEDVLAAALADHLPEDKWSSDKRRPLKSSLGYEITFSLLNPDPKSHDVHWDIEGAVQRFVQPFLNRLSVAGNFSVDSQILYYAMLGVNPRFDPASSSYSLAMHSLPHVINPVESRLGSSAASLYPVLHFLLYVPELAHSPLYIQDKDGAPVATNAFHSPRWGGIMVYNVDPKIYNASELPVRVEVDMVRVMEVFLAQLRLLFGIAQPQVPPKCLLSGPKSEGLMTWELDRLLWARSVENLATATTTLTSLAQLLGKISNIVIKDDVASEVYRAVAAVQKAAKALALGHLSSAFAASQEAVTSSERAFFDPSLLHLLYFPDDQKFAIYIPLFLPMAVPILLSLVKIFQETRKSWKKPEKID

[3] = biological target: T2, AEA-DA lipid probe targets in Neuro2a cells (Mus musculus, UniProt Q8VBZ3)
T2 sequence (Q8VBZ3 1-664): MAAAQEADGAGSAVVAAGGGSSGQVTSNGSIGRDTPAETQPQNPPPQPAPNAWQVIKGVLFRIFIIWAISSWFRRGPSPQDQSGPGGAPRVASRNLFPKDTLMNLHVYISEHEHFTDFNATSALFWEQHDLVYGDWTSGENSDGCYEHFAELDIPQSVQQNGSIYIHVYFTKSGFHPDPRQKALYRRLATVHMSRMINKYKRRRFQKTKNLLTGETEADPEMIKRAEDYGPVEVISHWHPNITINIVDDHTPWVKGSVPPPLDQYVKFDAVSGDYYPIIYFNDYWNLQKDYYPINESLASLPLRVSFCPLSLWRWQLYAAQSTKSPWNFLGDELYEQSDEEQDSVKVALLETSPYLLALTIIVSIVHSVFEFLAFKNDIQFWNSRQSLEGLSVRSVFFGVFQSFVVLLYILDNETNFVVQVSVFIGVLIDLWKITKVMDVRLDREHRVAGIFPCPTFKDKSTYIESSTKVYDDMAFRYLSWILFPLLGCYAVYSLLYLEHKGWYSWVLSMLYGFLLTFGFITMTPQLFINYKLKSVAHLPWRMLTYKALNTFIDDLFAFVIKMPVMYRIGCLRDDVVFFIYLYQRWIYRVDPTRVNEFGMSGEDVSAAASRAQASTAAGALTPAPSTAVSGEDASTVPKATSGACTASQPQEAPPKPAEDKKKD

[4] = biological target: T3, AEA-DA lipid probe targets in Neuro2a cells (Mus musculus, UniProt Q99L04)
T3 sequence (Q99L04 1-313): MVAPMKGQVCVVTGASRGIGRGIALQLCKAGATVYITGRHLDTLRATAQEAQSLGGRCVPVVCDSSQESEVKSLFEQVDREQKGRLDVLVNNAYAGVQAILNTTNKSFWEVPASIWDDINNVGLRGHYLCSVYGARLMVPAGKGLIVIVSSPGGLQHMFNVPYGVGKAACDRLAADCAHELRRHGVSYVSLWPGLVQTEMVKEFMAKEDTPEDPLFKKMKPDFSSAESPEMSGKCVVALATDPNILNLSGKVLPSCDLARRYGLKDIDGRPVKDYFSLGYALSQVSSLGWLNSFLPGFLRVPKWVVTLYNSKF

[5] = biological target: T4, AEA-DA lipid probe targets in Neuro2a cells (Mus musculus, UniProt Q9CPQ8)
T4 sequence (Q9CPQ8 1-103): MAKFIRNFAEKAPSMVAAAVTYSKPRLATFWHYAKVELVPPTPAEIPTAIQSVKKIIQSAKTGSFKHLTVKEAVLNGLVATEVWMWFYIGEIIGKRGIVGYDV

[6] = biological target: T5, AEA-DA lipid probe targets in Neuro2a cells (Mus musculus, UniProt P97311)
T5 sequence (P97311 1-821): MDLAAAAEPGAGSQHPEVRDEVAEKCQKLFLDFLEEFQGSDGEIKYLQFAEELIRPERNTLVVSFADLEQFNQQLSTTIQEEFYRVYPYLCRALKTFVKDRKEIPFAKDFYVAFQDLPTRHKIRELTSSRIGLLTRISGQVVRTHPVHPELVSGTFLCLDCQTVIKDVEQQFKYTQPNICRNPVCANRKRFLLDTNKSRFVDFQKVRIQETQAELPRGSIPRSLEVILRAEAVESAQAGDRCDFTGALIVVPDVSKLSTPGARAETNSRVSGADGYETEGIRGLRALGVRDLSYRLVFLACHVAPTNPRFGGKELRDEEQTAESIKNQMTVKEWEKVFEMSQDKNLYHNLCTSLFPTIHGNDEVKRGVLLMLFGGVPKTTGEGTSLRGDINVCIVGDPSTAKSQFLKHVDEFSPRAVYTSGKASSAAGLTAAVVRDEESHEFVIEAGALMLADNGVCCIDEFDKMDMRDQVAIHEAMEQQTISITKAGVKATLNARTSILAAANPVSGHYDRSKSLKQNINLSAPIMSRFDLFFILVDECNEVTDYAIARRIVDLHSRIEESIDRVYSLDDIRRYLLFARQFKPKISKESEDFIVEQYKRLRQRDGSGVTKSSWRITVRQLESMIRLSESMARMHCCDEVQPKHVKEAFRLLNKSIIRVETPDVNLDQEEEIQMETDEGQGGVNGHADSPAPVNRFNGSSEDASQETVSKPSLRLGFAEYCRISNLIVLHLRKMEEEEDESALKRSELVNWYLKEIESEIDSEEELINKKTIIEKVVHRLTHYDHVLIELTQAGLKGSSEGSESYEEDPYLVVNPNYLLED

Chain of AEA-DA lipid probe targets in Neuro2a cells (Mus musculus, UniProt P45377) (P45377 whole entry): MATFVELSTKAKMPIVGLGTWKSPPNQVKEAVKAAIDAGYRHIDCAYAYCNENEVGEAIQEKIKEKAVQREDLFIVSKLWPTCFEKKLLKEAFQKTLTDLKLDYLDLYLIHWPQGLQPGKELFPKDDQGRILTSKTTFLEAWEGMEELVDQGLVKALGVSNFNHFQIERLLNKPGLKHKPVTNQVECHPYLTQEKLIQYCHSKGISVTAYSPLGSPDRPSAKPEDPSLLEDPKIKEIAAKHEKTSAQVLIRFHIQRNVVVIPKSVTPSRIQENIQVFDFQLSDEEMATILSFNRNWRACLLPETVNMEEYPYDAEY

## CCCCC/C=C\C/C=C\C/C=C\C/C=C\CCCC(=O)NCCO [AEA, anandamide, reference compound]
[1]; competitor 200 μM
  SILAC ratio, Akr1b8: 7.7
[2]; competitor 200 μM
  SILAC ratio Pigs: 1.6
[3]; competitor 200 μM
  SILAC ratio, Clptm1: 2.3
[4]; competitor 200 μM
  SILAC ratio, Dhrs1: 18.4
[5]; competitor 200 μM
  SILAC ratio Atp5l: 1.3
[6]; competitor 200 μM
  SILAC ratio Mcm6: 1.3

## O=C(/C=C/c1cccnc1)NCCCCC1CCN(C(=O)c2ccccc2)CC1 [FK-866, reference compound]
[1]; competitor 25 μM
  SILAC ratio, Akr1b8: 1.7
[2]; competitor 25 μM
  SILAC ratio Pigs: 1.3
[3]; competitor 25 μM
  SILAC ratio, Clptm1: 1.1
[4]; competitor 25 μM
  SILAC ratio, Dhrs1: 8.0
[5]; competitor 25 μM
  SILAC ratio Atp5l: 1.1
[6]; competitor 25 μM
  SILAC ratio Mcm6: 1.1

## CN1CCN(C(=O)c2c(-c3ccccc3)c3cc([N+](=O)[O-])ccc3n2C)CC1 [KML110, (1-Methyl-5-nitro-3-phenyl-1H-indol-2-yl)(4-methylpiperazin-1-yl)methanone]
[1]; competitor 25 μM
  SILAC ratio, Akr1b8: 3.1
[2]; competitor 25 μM
  SILAC ratio Pigs: 1.2
[3]; competitor 25 μM
  SILAC ratio, Clptm1: 1.5
[4]; competitor 25 μM
  SILAC ratio, Dhrs1: 2.7
[5]; competitor 25 μM
  SILAC ratio Atp5l: 1.2
[6]; competitor 25 μM
  SILAC ratio Mcm6: 2.0

## CN1CCN(C(=O)c2[nH]c3ccc([N+](=O)[O-])cc3c2-c2ccccc2)CC1 [MJN228, (4-Methylpiperazin-1-yl)(5-nitro-3-phenyl-1H-indol-2-yl)methanone]
[1]; competitor 25 μM
  SILAC ratio, Akr1b8: 1.9
[1]; competitor 50 μM
  SILAC ratio, Akr1b8: 2.1
[1]; competitor 100 μM
  SILAC ratio, Akr1b8: 2.7
[2]; competitor 10 μM
  SILAC ratio Pigs: 1.3
[2]; competitor 25 μM
  SILAC ratio Pigs: 1.6
[2]; competitor 50 μM
  SILAC ratio Pigs: 1.7
[2]; competitor 100 μM
  SILAC ratio Pigs: 2.0
[3]; competitor 10 μM
  SILAC ratio, Clptm1: 1.3
[3]; competitor 25 μM
  SILAC ratio, Clptm1: 1.6
[3]; competitor 50 μM
  SILAC ratio, Clptm1: 1.6
[3]; competitor 100 μM
  SILAC ratio, Clptm1: 2.5
[4]; competitor 10 μM
  SILAC ratio, Dhrs1: 1.4
[4]; competitor 25 μM
  SILAC ratio, Dhrs1: 1.8
[4]; competitor 50 μM
  SILAC ratio, Dhrs1: 2.4
[4]; competitor 100 μM
  SILAC ratio, Dhrs1: 4.4
[5]; competitor 10 μM
  SILAC ratio Atp5l: 1.5
[5]; competitor 25 μM
  SILAC ratio Atp5l: 1.5
[5]; competitor 50 μM
  SILAC ratio Atp5l: 1.4
[5]; competitor 100 μM
  SILAC ratio Atp5l: 1.3
[6]; competitor 10 μM
  SILAC ratio Mcm6: 1.2
[6]; competitor 25 μM
  SILAC ratio Mcm6: 1.4
[6]; competitor 50 μM
  SILAC ratio Mcm6: 1.0
[6]; competitor 100 μM
  SILAC ratio Mcm6: 1.6

## C=CCN(C)CCCCCCOc1ccc(C(=O)c2ccc(Br)cc2)c(F)c1 [Ro 48-8071, reference compound]
[1]; competitor 25 μM
  SILAC ratio, Akr1b8: 1.4
[2]; competitor 25 μM
  SILAC ratio Pigs: 1.1
[3]; competitor 25 μM
  SILAC ratio, Clptm1: 1.2
[4]; competitor 25 μM
  SILAC ratio, Dhrs1: 9.5
[5]; competitor 25 μM
  SILAC ratio Atp5l: 1.0
[6]; competitor 25 μM
  SILAC ratio Mcm6: 0.8

From patent publication US10168342B2, “Lipid probes and uses thereof” (THE SCRIPPS RESEARCH INSTITUTE, priority 2015, dated 2019)
